The values that follow come from US20120020958A1, “FIBCD1 FOR THE PREVENTION AND TREATMENT OF DISEASES” (Dansk Universitet, priority 2008, published 2012).

Positions count from the first letter of the chain named. Numbers in names are those of the source.

One assay concerns mice. Particulars: cited from earlier work.
Assay [1] has as its system spleen cells isolated from the ragweed-immunized mice. The note with it: ragweed/chitin stimulation, 3 days; cited from earlier work.
For another assay, the system named is allergic mouse model. The note with it: oral administration; cited from earlier work.
The target of assay [2] is T1, FIBCD1 (the FReD of FIBCD1) (Homo sapiens, UniProt Q8N539).
T1 construct: 20 μg of the FIBCD1 (the FReD of FIBCD1)
T1 sequence (Q8N539 235-458 limits assumed): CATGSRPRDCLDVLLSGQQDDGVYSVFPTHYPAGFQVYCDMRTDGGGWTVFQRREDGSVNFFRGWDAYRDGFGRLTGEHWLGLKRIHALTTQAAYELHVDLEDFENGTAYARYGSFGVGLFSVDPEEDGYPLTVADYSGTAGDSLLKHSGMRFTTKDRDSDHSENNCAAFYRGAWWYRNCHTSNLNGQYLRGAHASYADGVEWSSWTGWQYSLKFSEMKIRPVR
Kind of assay: Pull-down assay of FIBCD1 (FReD) with insoluble polysaccharides. The class given is binding. The note with it: 20 μg FIBCD1 FReD, 2 mg insoluble substance. As for the experimental part: (B) Microtiterplates were coated with LTA, mannan, peptidoglycan or NAc-BSA and increasing concentrations of FIBCD1 was added. (C) Pull-down assays where 20 μg of the FIBCD1 (the FReD of FIBCD1) or as a positive control 20 μg of wheat germ agglutinin (WGA) was added to 2 mg insoluble chitin, cellulose, zymozane or beta-glucan. […] BSA was used as control. Pellet fractions were analyzed by SDS-PAGE and Coomassie blue staining.

Another assay addresses T2, acetylated BSA (Bos taurus, UniProt P02769).
T2 construct: purchased Sigma
Kind of assay: Binding of mutated forms of the FReD of FIBCD1 to acetylated BSA (ELISA). The note with it: site directed mutagenesis of FIBCD1 FReD. Here is the method: Microtiter plates were coated with acetylated BSA or BSA and blocked with TBS/Tw before being incubated with FIBCD1 samples diluted in TBS/Tw (5 mM CaCl2). The FIBCD1 samples were added from 1 μg/ml in a twofold dilution series. The signal from binding of protein to BSA was subtracted from the signal from binding to acetylated BSA. The resulting normalized signals were then expressed as a percentage of the signal from FIBCD1FReD at 1 μg/ml, which was set at 100%. The experiment was repeated three times.
Generation of HEK293 and CHO cells expressing recombinant forms of FIBCD1 In order to generate cells expressing recombinant forms of FIBCD1, the Flp-In™ system (Invitrogen) was utilized. In this system the cDNA is integrated into a specific genomic site. Flp-In™ T-REx™ HEK293 cells or CHO Flp-In™ T-REx™ (Invitrogen) was used as host cells. HEK293 cells were cultured in Dulbecco's modified Eagle medium (DMEM; Invitrogen) and CHO cells in Hams F12 medium (Invitrogen) both containing penicillin (100 units/ml), streptomycin (100 μg/ml), 2 mM L-glutamine and 10% fetal bovine serum (Invitrogen). At approximately 50% confluency, cells were co-transfected (ratio 1:9) with the pSecTag/FRT/V5-His TOPO® TA or pcDNA/FRT/V5-His TOPO® TA containing the FIBCD1 construct and the pOG44 vector encoding Flp recombinase, using the jetPEI™ transfection kit (Polyplus-transfection SAS, Illkirch cedex, France). The recombinase mediates insertion of the expression vectors into the genomic integration site. Integration of the vectors confers hygromycin resistance. Thus, 48 hours after transfection the HEK293 and CHO cells were selected for stable integration of the FIBCD1 constructs with 150 μg/ml and 800 μg/ml hygromycin B (Invitrogen), respectively. Hygromycin resistant clones were obtained after two weeks of culture. At confluence cells were transferred to DMEM or Hams F12 medium without serum. Supernatants were harvested after 72 hours of expression and analyzed by SDS-PAGE and Western blotting. […]

T2 sequence (P02769 25-607): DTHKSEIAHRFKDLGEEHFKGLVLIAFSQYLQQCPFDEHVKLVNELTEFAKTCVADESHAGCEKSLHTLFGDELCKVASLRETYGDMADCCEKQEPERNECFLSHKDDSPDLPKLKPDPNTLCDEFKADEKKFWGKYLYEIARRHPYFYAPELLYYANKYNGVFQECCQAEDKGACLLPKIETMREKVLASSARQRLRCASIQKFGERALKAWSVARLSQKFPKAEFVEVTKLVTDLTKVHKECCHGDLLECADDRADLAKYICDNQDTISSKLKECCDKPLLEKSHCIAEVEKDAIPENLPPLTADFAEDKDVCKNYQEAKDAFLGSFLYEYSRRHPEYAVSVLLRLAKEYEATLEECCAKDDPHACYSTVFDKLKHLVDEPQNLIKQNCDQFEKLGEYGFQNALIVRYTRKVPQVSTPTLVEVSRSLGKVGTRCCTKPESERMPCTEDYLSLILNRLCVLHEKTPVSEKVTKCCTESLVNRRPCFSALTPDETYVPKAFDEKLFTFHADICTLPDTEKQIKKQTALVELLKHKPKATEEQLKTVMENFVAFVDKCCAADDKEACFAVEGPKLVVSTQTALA

As for chitin, the “accumulation of IL-4 and IL-13 expressing cells including Th2 cells, eosinophils and basophils” value in the assay with mice (instilled in the lung (or given intraperitoneally)) is reported as “induced the accumulation”. Further, in assay [1], the IFN-γ production result is reported as “increase”, the IL-4 levels entry was “significant decreases”, the IL-5 levels entry was “significant decreases” and the IL-10 levels result is recorded as “significant decreases”. In the assay with allergic mouse model, the lung eosinophilia entry is reported as “down-regulates” and the “serum IgE levels” value is on record as “down-regulates”. The “binding of FIBCD1 in pull-down” value in assay [2] is recorded as “detected”.

As for “AMCase: acidic mammalian chitinase, an endo-β-1,3... see b8: endo-β-1,4-N-acetylglucosaminidase”, the chitin-induced cell infiltration entry in the assay on mice (pre-treatment with AMCase) is listed as “inhibited”.

B1: H415G: single mutation form of the FReD of FIBCD1 (protein)
chain: ATGSRPRDCLDVLLSGQQDDGVYSVFPTHYPAGFQVYCDMRTDGGGWTVFQRREDGSVNFFRGWDAYRDGFGRLTGEHWLGLKRIHALTTQAAYELHVDLEDFENGTAYARYGSFGVGLFSVDPEEDGYPLTVADYSGTAGDSLLKHSGMRFTTKDRDSDHSENNCAAFYRGAWWYRNCGTSNLNGQYLRGAHASYADGVEWSSWTGWQYSLKFSEMKIRPVREDR
B1: the “binding of mutated FIBCD1 to NAc-BSA” value with acetylated BSA is “completely arrogate”.

B2: A432V: single mutation form of the FReD of FIBCD1 (protein)
chain: B1 chain with G180H, A197V
For the molecule B2, the “binding of mutated FIBCD1 to NAc-BSA” value with acetylated BSA is recorded as “completely arrogate”.

B3: W443S: single mutation form of the FReD of FIBCD1 (protein)
chain: B1 chain with G180H, W208S
As for B3, the “binding of mutated FIBCD1 to NAc-BSA” value with acetylated BSA is given as “partially arrogated”.
